In patent publication US6995143B2, “Macrolides with antibacterial activity” (Basilea Pharmaceutica AG, priority 2002, dated 2006):
Converted amounts (≈) assume the structure as drawn.

Tests used:
Assay type in all cases: cell-based
[1] = tested on: Haemophilus influenzae 12214; test: MIC, standard agar dilution method using HTM medium; settings: for MIC: read-out: minimum inhibitory concentration (MIC), Strain K
Source text: (§1) The biological activities of compounds of the present invention against Haemophilus influenzae have been determined by standard agar dilution method using HTM medium (National Committee for Clinical Laboratory Standards. 2000. Methods for Dilution Antimicrobial Susceptibility Tests for Bacteria that Grow Aerobically, 5th edition. Approved standard M7-A5. National Committee for Clinical Laboratory Standards, Wayne, Pa.).

[2] = tested on: Haemophilus influenzae QK50; test: as above; settings: for MIC: read-out: minimum inhibitory concentration (MIC), Strain L
Source text: as §1

[3] = tested on: Haemophilus influenzae B1501; test: as above; settings: for MIC: read-out: minimum inhibitory concentration (MIC), Strain M
Source text: as §1

[4] = tested on: Haemophilus influenzae QK12/87; test: as above; settings: for MIC: read-out: minimum inhibitory concentration (MIC), Strain I
Source text: as §1

[5] = tested on: Streptococcus pneumoniae ¼; test: MIC, standard microdilution technique; settings: for MIC: read-out: minimum inhibitory concentration (MIC), Strain F
Source text: (§2) The antibacterial activities of the compounds have been determined by standard microdilution technique (National Committee for Clinical Laboratory Standards. 2000. Methods for Dilution Antimicrobial Susceptibility Tests for Bacteria that Grow Aerobically, 5th edition. Approved standard M7-A5. National Committee for Clinical Laboratory Standards, Wayne, Pa.).

[6] = tested on: Streptococcus pneumoniae SL199T; test: MIC, standard microdilution technique; settings: for MIC: read-out: minimum inhibitory concentration (MIC), Strain G
Source text: as §2

[7] = tested on: Staphylococcus aureus 745; test: MIC, standard microdilution technique; settings: for MIC: read-out: minimum inhibitory concentration (MIC), Strain C
Source text: as §2

[8] = tested on: Staphylococcus aureus ATCC 29213; test: MIC, standard microdilution technique; settings: for MIC: ATCC29213, read-out: minimum inhibitory concentration (MIC), Strain A
Source text: as §2

[9] = tested on: Streptococcus pneumoniae 12288; test: MIC, standard microdilution technique; settings: for MIC: read-out: minimum inhibitory concentration (MIC), Strain H
Source text: as §2

[10] = tested on: Staphylococcus aureus 1086; test: MIC, standard microdilution technique; settings: for MIC: read-out: minimum inhibitory concentration (MIC), Strain B
Source text: as §2

[11] = tested on: Escherichia coli ATCC 25922; test: MIC, standard microdilution technique; settings: for MIC: ATCC25922, read-out: minimum inhibitory concentration (MIC), Strain D
Source text: as §2

[12] = tested on: Streptococcus pneumoniae l/l; test: MIC, standard microdilution technique; settings: for MIC: read-out: minimum inhibitory concentration (MIC), Strain E
Source text: as §2

SMILES: CC[C@H]1OC(=O)[C@H](C)C(=O)[C@H](C)[C@@H](O[C@@H]2O[C@H](C)C[C@H](N(C)C)[C@H]2O)[C@](C)(OC)C[C@@H](C)C(=O)[C@H](C)[C@H]2[C@@H](SCCNS(=O)(=O)c3cccc4c(N(C)C)cccc34)C(=O)O[C@@]21C [Example 28]
- minimum inhibitory concentration (MIC), Strain K [1]: >32 µg/mL
- minimum inhibitory concentration (MIC), Strain L [2]: 32 µg/mL (≈ 34.8 µM)
- minimum inhibitory concentration (MIC), Strain M [3]: >32 µg/mL
- minimum inhibitory concentration (MIC), Strain I [4]: 32 µg/mL (≈ 34.8 µM)
- minimum inhibitory concentration (MIC), Strain F [5]: 32 µg/mL (≈ 34.8 µM)
- minimum inhibitory concentration (MIC), Strain G [6]: 16 µg/mL (≈ 17.4 µM)
- minimum inhibitory concentration (MIC), Strain C [7]: >32 µg/mL
- minimum inhibitory concentration (MIC), Strain A [8]: 1 µg/mL (≈ 1.09 µM)
- minimum inhibitory concentration (MIC), Strain H [9]: >32 µg/mL
- minimum inhibitory concentration (MIC), Strain B [10]: 1 µg/mL (≈ 1.09 µM)
- minimum inhibitory concentration (MIC), Strain D [11]: >32 µg/mL
- minimum inhibitory concentration (MIC), Strain E [12]: <=0.06 μg/ml

SMILES: CC[C@H]1OC(=O)[C@H](C)[C@@H](O[C@H]2C[C@@](C)(OC)[C@@H](O)[C@H](C)O2)[C@H](C)[C@@H](O[C@@H]2O[C@H](C)C[C@H](N(C)C)[C@H]2O)[C@](C)(O)C[C@@H](C)C(=O)[C@H](C)[C@@H](O)[C@]1(C)O [Erythromycin, reference compound]
- MIC [1]: 4 µg/mL (≈ 5.45 µM)
- MIC [2]: 8 µg/mL (≈ 10.9 µM)
- MIC [3]: 4 µg/mL (≈ 5.45 µM)
- MIC [4]: 4 µg/mL (≈ 5.45 µM)
- MIC [5]: > 32 µg/mL
- MIC [6]: > 32 µg/mL
- MIC [7]: > 32 µg/mL
- MIC [8]: 0.25 µg/mL (≈ 0.341 µM)
- MIC [9]: > 32 µg/mL
- MIC [10]: > 32 µg/mL
- MIC [11]: > 32 µg/mL
- MIC [12]: ≤ 0.06 µg/mL

SMILES: CC[C@H]1OC(=O)[C@H](C)C(=O)[C@H](C)[C@@H](O[C@@H]2O[C@H](C)C[C@H](N(C)C)[C@H]2O)[C@](C)(OC)C[C@@H](C)C(=O)[C@H](C)[C@H]2[C@@H](SCC(=O)NCc3ccco3)C(=O)O[C@@]21C [Example 31]
- minimum inhibitory concentration (MIC), Strain K [1]: 8 µg/mL (≈ 10.2 µM)
- minimum inhibitory concentration (MIC), Strain L [2]: 8 µg/mL (≈ 10.2 µM)
- minimum inhibitory concentration (MIC), Strain M [3]: 8 µg/mL (≈ 10.2 µM)
- minimum inhibitory concentration (MIC), Strain I [4]: 8 µg/mL (≈ 10.2 µM)
- minimum inhibitory concentration (MIC), Strain F [5]: >32 µg/mL
- minimum inhibitory concentration (MIC), Strain G [6]: 32 µg/mL (≈ 41 µM)
- minimum inhibitory concentration (MIC), Strain C [7]: >32 µg/mL
- minimum inhibitory concentration (MIC), Strain A [8]: 0.5 µg/mL (≈ 0.64 µM)
- minimum inhibitory concentration (MIC), Strain H [9]: >32 µg/mL
- minimum inhibitory concentration (MIC), Strain B [10]: 0.25 µg/mL (≈ 0.32 µM)
- minimum inhibitory concentration (MIC), Strain D [11]: >32 µg/mL
- minimum inhibitory concentration (MIC), Strain E [12]: <=0.06 μg/ml

SMILES: CC[C@H]1OC(=O)[C@@](C)(F)C(=O)[C@H](C)[C@@H](O[C@@H]2O[C@H](C)C[C@H](N(C)C)[C@H]2O)[C@](C)(OC)C[C@@H](C)C(=O)[C@H](C)[C@H]2[C@@H](S(=O)(=O)Cc3ccc(OC)cc3)C(=O)O[C@@]21C (single isomer, unassigned) [Example 2]
- minimum inhibitory concentration (MIC), Strain K [1]: >32 µg/mL
- minimum inhibitory concentration (MIC), Strain L [2]: 32 µg/mL (≈ 39.3 µM)
- minimum inhibitory concentration (MIC), Strain M [3]: >32 µg/mL
- minimum inhibitory concentration (MIC), Strain I [4]: >32 µg/mL
- minimum inhibitory concentration (MIC), Strain F [5]: 4 µg/mL (≈ 4.91 µM)
- minimum inhibitory concentration (MIC), Strain G [6]: >32 µg/mL
- minimum inhibitory concentration (MIC), Strain C [7]: >32 µg/mL
- minimum inhibitory concentration (MIC), Strain A [8]: 2 µg/mL (≈ 2.46 µM)
- minimum inhibitory concentration (MIC), Strain H [9]: >32 µg/mL
- minimum inhibitory concentration (MIC), Strain B [10]: 2 µg/mL (≈ 2.46 µM)
- minimum inhibitory concentration (MIC), Strain D [11]: >32 µg/mL
- minimum inhibitory concentration (MIC), Strain E [12]: <=0.06 μg/ml

SMILES: CC[C@H]1OC(=O)[C@H](C)C(=O)[C@H](C)[C@@H](O[C@@H]2O[C@H](C)C[C@H](N(C)C)[C@H]2O)[C@](C)(OC)C[C@@H](C)C(=O)[C@H](C)[C@H]2[C@@H](SCC(=O)c3ccc4c(c3)CCC(=O)N4)C(=O)O[C@@]21C [Example 6]
- minimum inhibitory concentration (MIC), Strain K [1]: 32 µg/mL (≈ 38.5 µM)
- minimum inhibitory concentration (MIC), Strain L [2]: 32 µg/mL (≈ 38.5 µM)
- minimum inhibitory concentration (MIC), Strain M [3]: 32 µg/mL (≈ 38.5 µM)
- minimum inhibitory concentration (MIC), Strain I [4]: >32 µg/mL
- minimum inhibitory concentration (MIC), Strain F [5]: >32 µg/mL
- minimum inhibitory concentration (MIC), Strain G [6]: 32 µg/mL (≈ 38.5 µM)
- minimum inhibitory concentration (MIC), Strain C [7]: >32 µg/mL
- minimum inhibitory concentration (MIC), Strain A [8]: 1 µg/mL (≈ 1.2 µM)
- minimum inhibitory concentration (MIC), Strain H [9]: >32 µg/mL
- minimum inhibitory concentration (MIC), Strain B [10]: 1 µg/mL (≈ 1.2 µM)
- minimum inhibitory concentration (MIC), Strain D [11]: >32 µg/mL
- minimum inhibitory concentration (MIC), Strain E [12]: <=0.06 μg/ml

SMILES: CC[C@H]1OC(=O)[C@H](C)C(=O)[C@H](C)[C@@H](O[C@@H]2O[C@H](C)C[C@H](N(C)C)[C@H]2O)[C@](C)(OC)C[C@@H](C)C(=O)[C@H](C)[C@H]2[C@@H](SCCNc3ccc(C#N)cn3)C(=O)O[C@@]21C (single isomer, unassigned) [Example 46, (3R or S, 3aR, 4R or S, 6R, 8R, 9R, 10R, 12R, 15R, 15aS) -3-[[2-[(5-Cyanopyridin-2-yl)amino]ethyl]thio]-15-ethyloctahydro-8-methoxy-4,6,8,10,12,15a-hexamethyl-9-[[-3,4,6-trideoxy-3-(dimethylamino)-β-D-xylo-hexopyranosyl]oxy]-2H-furo [2,3-c] oxacyclotetradecin-2,5,11,13 (3H,6H,12H)-tetrone]
- MIC [1]: 2 µg/mL (≈ 2.53 µM)
- MIC [2]: 4 µg/mL (≈ 5.07 µM)
- MIC [3]: 1 µg/mL (≈ 1.27 µM)
- MIC [4]: 1 µg/mL (≈ 1.27 µM)
- MIC [5]: ≤ 0.06 µg/mL
- MIC [6]: 4 µg/mL (≈ 5.07 µM)
- MIC [7]: > 32 µg/mL
- MIC [8]: ≤ 0.06 µg/mL
- MIC [9]: 32 µg/mL (≈ 40.6 µM)
- MIC [10]: ≤ 0.06 µg/mL
- MIC [11]: > 32 µg/mL
- MIC [12]: ≤ 0.06 µg/mL

SMILES: CC[C@H]1OC(=O)[C@H](C)C(=O)[C@H](C)[C@@H](O[C@@H]2O[C@H](C)C[C@H](N(C)C)[C@H]2O)[C@](C)(OC)C[C@@H](C)C(=O)[C@H](C)[C@H]2[C@@H](SCC(=O)Nc3cccc4cnccc34)C(=O)O[C@@]21C [Example 40]
- minimum inhibitory concentration (MIC), Strain K [1]: 4 µg/mL (≈ 4.83 µM)
- minimum inhibitory concentration (MIC), Strain L [2]: 4 µg/mL (≈ 4.83 µM)
- minimum inhibitory concentration (MIC), Strain M [3]: 4 µg/mL (≈ 4.83 µM)
- minimum inhibitory concentration (MIC), Strain I [4]: 4 µg/mL (≈ 4.83 µM)
- minimum inhibitory concentration (MIC), Strain F [5]: 0.125 µg/mL (≈ 0.151 µM)
- minimum inhibitory concentration (MIC), Strain G [6]: 0.5 µg/mL (≈ 0.604 µM)
- minimum inhibitory concentration (MIC), Strain C [7]: >32 µg/mL
- minimum inhibitory concentration (MIC), Strain A [8]: 0.125 µg/mL (≈ 0.151 µM)
- minimum inhibitory concentration (MIC), Strain H [9]: 4 µg/mL (≈ 4.83 µM)
- minimum inhibitory concentration (MIC), Strain B [10]: 0.125 µg/mL (≈ 0.151 µM)
- minimum inhibitory concentration (MIC), Strain D [11]: >32 µg/mL
- minimum inhibitory concentration (MIC), Strain E [12]: <=0.06 μg/ml

SMILES: CC[C@H]1OC(=O)[C@H](C)C(=O)[C@H](C)[C@@H](O[C@@H]2O[C@H](C)C[C@H](N(C)C)[C@H]2O)[C@](C)(OC)C[C@@H](C)C(=O)[C@H](C)[C@H]2[C@@H](S(=O)(=O)CCNC(=O)c3cccnc3)C(=O)O[C@@]21C (single isomer, unassigned) [Example 43, (3R or S, 3aR, 4R or S, 6R, 8R, 9R, 10R, 12R, 15R, 15aS) -15-Ethyloctahydro-8-methoxy-4,6,8,10,12,15a-hexamethyl-3-[[2-[(3-pyridinylcarbonyl)amino]ethyl]sulfonyl]-9-[[-3,4,6-trideoxy-3-(dimethylamino)-β-D-xylo-hexopyranosyl]oxy]-2H-furo [2,3-c] oxacyclotetradecin-2,5,11,13 (3H,6H,12H)-tetrone]
- MIC [1]: 16 µg/mL (≈ 19.4 µM)
- MIC [2]: 16 µg/mL (≈ 19.4 µM)
- MIC [3]: 8 µg/mL (≈ 9.71 µM)
- MIC [4]: 16 µg/mL (≈ 19.4 µM)
- MIC [6]: 32 µg/mL (≈ 38.8 µM)
- MIC [7]: > 32 µg/mL
- MIC [8]: 2 µg/mL (≈ 2.43 µM)
- MIC [9]: > 32 µg/mL
- MIC [10]: 1 µg/mL (≈ 1.21 µM)
- MIC [11]: > 32 µg/mL
